Assay results as given in PubChem BioAssay (NCI).
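In this assay, cells in 96-well plates receive the compound at five concentrations for 48 hours. Endpoints are linearly interpolated between the surrounding concentrations. GI50: concentration for 50% inhibition of growth. TGI marks complete inhibition of growth.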

Tested on: MDA-MB-468 breast
Assay: NCI tumour cell line growth inhibition, 48 h

SMILES	GI50	TGI
Cc1cc2ncc(-c3cc4ccccc4c(N4CCN(C)CC4)n3)nc2cc1C	2.12 µM	5.11 µM
Oc1c(C(Nc2ccccc2Br)c2ccccc2)ccc2cccnc12 (configuration not stated)	1.52 µM	6.12 µM
COc1ccc(C(=O)Cn2c(C(=O)c3ccccc3)nc3ccccc32)cc1	0.817 µM	5.77 µM
Cc1ccc(/C=C(\C#N)c2cc3ccccc3n2C)cc1	0.406 µM	> 100 µM
CNC(=O)NCC1OC(n2cnc3c(NC(=O)Nc4ccccc4)ncnc32)C(O[Si](C)(C)C(C)(C)C)C1O[Si](C)(C)C(C)(C)C (configuration not stated)	3.35 µM	13.9 µM
CN(C)c1ccc(Nc2c3ccccc3nc3ccccc23)cc1	0.632 µM	2.11 µM
C=CC(=O)N1CCC(c2ccc(C(N)=O)c(-c3ccc(Oc4ccccc4)cc3)n2)CC1	5.76 µM	49.5 µM
NC(=N\N=C/c1ccc(O)cc1)/C(N)=N\N=C/c1ccc(O)cc1	> 100 µM	> 100 µM
COC(=O)c1cc(-c2ccccc2)[nH]c1N/N=C/c1c(Cl)cccc1Cl	0.185 µM	
COc1c(C(C)=O)c(OCCCCOc2c(C(C)=O)c(OC)c3ccoc3c2OC)c(OC)c2occc12	2.31 µM	> 100 µM
CCOC(=O)NC1CCc2cc(OC)c(OC)c(OC)c2-c2ccc(OC)c(=O)cc21 (configuration not stated)	0.548 µM	> 100 µM
C=C1C(=O)O[C@H]2[C@H]1CC/C(COC(=O)CCCCCC(=O)OC/C1=C/CC[C@@]3(C)O[C@H]3[C@H]3OC(=O)C(=C)[C@@H]3CC1)=C\CC[C@@]1(C)O[C@@H]21	1.84 µM	7.1 µM
COc1ccc(/C=C(/c2ccccc2)[N+](=O)[O-])c(OC)c1	1.51 µM	3.4 µM
N#Cc1nc(-c2ccc(F)cc2)oc1S(=O)(=O)N1CCCCC1	1.64 µM	3.3 µM
CC1=CC2C(C(O)CC3(C)C2CC(C)C32OCOC23COCO3)C2(C)C/C(=C/O)C(=O)C=C12 (configuration not stated)	1.79 µM	3.47 µM
COC(=O)c1c2c(c(C)[n+]([O-])c1C)C(=O)C=C(NCc1ccccc1)C2=O	0.266 µM	1.14 µM
CCCCNNC(=O)c1ccc(Br)cc1	1.71 µM	> 50 µM
COc1ccc(-c2cc(=O)n(-c3nc4ccccc4[nH]3)[nH]2)cc1OC	4.3 µM	44.7 µM
Cc1cn2c(/C=C3/C(=O)Nc4c3ccc3ccccc43)c(C(F)(F)F)nc2s1	1.46 µM	> 100 µM
Cc1ccc(S(=O)(=O)Oc2ccc3c4c(c(=O)oc3c2)CCCCCC4)cc1	2.04 µM	> 100 µM
COc1cccc2c1C=CC1(O2)Oc2cccc(OC)c2C=C1C (configuration not stated)	0.402 µM	> 100 µM
O=C(Nc1ccc(F)c(F)c1)c1cc(-c2ccc(F)cc2F)ccc1O	1.12 µM	4.35 µM

SMILES	GI50	TGI
O=C(CCN1CCCC1)Nc1ccc2c(NCc3ccccc3)c3ccccc3nc2c1	0.274 µM	1.06 µM
COc1ccc2c(c1)nc(NNC(=O)c1cnccn1)c1cccn12	0.227 µM	1.66 µM
Fc1ccc(-c2ncn(C3CCNCC3)c2-c2ccnc(Oc3ccc4c(c3)OCO4)n2)cc1	3.19 µM	8.02 µM
CCC(=O)N1C/C(=C/c2ccc(Cl)cc2)C(=O)/C(=C/c2ccc(Cl)cc2)C1	0.704 µM	2.08 µM
CC(C)(C)c1ccc(C(O)CCCN2CCC(C(O)(c3ccccc3)c3ccccc3)CC2)cc1 (configuration not stated)	1.15 µM	2.45 µM
CCn1c(=O)c2nc(SC)sc2n(-c2ccc(C)cc2)c1=O	62 µM	> 100 µM
C/C(=C\c1ccn(-c2ccccc2N)n1)[C@@H]1C[C@@H]2O[C@]2(C)CCC[C@H](C)[C@H](O)[C@@H](C)C(=O)C(C)(C)[C@@H](O)CC(=O)O1	0.0357 µM	0.732 µM
CCOc1ccc2c(-c3ccnc(Nc4cc(OC)cc(C(F)(F)F)c4)n3)cnn2n1	0.836 µM	> 20.5 µM
COc1ccc([C@H](CC(=O)O)N2CCN(CCCc3ccc4c(n3)NCCC4)C2=O)cn1	0.111 µM	0.479 µM
c1ccc(-c2nn3c(c2-c2ccnc4cc(OCCN5CCOCC5)ccc24)CCC3)nc1	30.9 µM	> 100 µM
O=[N+]([O-])c1cc[n+]([O-])c2ccccc12	0.135 µM	0.324 µM
C=C(C)[C@@H]1CCC=C2CC[C@]3(C)[C@H](CC[C@@H]4[C@@]5(C)CCCNC(C)(C)[C@@H]5CC[C@]43C)[C@H]21	1.61 µM	3.1 µM
C=C(C)[C@@H]1CC[C@]2(COP(=O)(OCC)OCC)CC[C@]3(C)[C@H](CC[C@@H]4[C@@]5(C)CCCNC(C)(C)[C@@H]5CC[C@]43C)[C@@H]12	1.39 µM	2.91 µM
Nc1ccn(C2CC(F)C(CO)O2)c(=O)n1 (configuration not stated)	> 100 µM	> 100 µM
CN(C)C(=O)Nc1nc2cc(Cl)c(Cl)cc2[nH]1	0.537 µM	> 91 µM
CCCCCCCCCCCC1=NC(C)(C)CN1C(C)(C)CO	1.82 µM	3.67 µM
Cc1ccc2nc3ccccc3c(NCc3ccc(Cl)cc3)c2c1	1.63 µM	6.38 µM
O=c1c2cc(C(F)(F)F)ccc2sc2c(NCCCNCCO)nc3ccccc3c12	1.57 µM	3.13 µM
Cc1ccc(/C=C/c2c(C(=O)/C=C/c3ccccc3)c(C)nc3ccccc23)cc1	1.8 µM	3.47 µM
O=C(NCCN1CCOCC1)OCc1nc2nc(Cl)nc(N3CCOCC3)c2[nH]1	0.375 µM	3.79 µM
O=C(O)C[C@H](O)C[C@H](O)/C=C/c1c(C2CC2)nc2ccccc2c1-c1ccc(F)cc1	2.37 µM	12.1 µM
O=C1CCc2c(sc3[nH]c(=S)n(-c4cc(C(F)(F)F)cc(C(F)(F)F)c4)c(=O)c23)C1	0.248 µM	0.768 µM
